US7759349B2, “Control of parasites in animals by the use of imidazo[1,2-b]pyridazine derivatives” (Schering-Plough Animal Health Corporation, priority 2003, dated 2010)

tested on: Haemonchus contortus; test: Haemonchus contortus larvacidal assay: NemaTOX H. contortus dose response (larval development, eggs to L3); type: cell-based; settings: Haemonchus contortus, 144 h; Table 1; concentration required to inhibit development in 99% of the nematode larvae; eggs on agar to L3 stage (6 days); two-fold dilutions, 0.024 to 50 μg/ml; read-out: LD99
Description: Haemonchus Contortus Larvacidal Assay: NemaTOX H.contortus Dose Response (00/0510)
Effect on larval development is determined in the assay described by Gill et al. (International Journal of Parasitology, 1995, 25, 463-470). Briefly, in this assay nematode eggs were applied to the surface of an agar matrix containing the test compound and then allowed to develop through to the L3, infective stage (6 days)
The wells for each dilution of every compound (from highest to lowest concentration) were inspected to determine the well number corresponding to the lowest concentration at which development was inhibited in 99% of the nematode larvae present. As the well numbers correspond to a two-fold serial dilution of each compound, a titre (dilution factor) is generated as 2^n-1, where n is the well number. By dividing the highest concentration tested by the titre an LD99 value can be obtained, representing the concentration required to inhibit development in 99% of the nematode larvae present.
The compounds supplied as solid and viscous liquids were dissolved in DMSO. Twelve serial 1/2 dilutions in DMSO solution were prepared from the stock solution, each of which was then diluted 1/5 with water. Aliquots (10 μl) of each dilution were transferred to the bioassay plates to give a final concentration range of 0.024 to 50 μg/ml.
In Tables 1, 2 and 3 the Haemonchus contortus LD99 values for compounds in accordance with the present invention are listed, measured in micrograms/mL.

Compound | IC99
c1cc2c(cc1-c1cn3nc(OCC4CC4)ccc3n1)OCO2 [Compound 43, 2-(3,4-Methylendioxyphenyl)-6-cyclopropylmethoxyimidazo[1,2-b]pyridazine] | 0.117 µg/mL
Cc1c(-c2cccs2)nc2ccc(OCC3CC3)nn12 [Compound 44] | 0.375 µg/mL

same assay, conditions: Table 1; concentration required to inhibit development in 99% of the nematode larvae; eggs on agar to L3 stage (6 days); two-fold dilutions, 0.024 to 50 μg/ml

Compound | LD99
COc1ccc2nc(-c3ccc(C)cc3)cn2n1 [Compound 1] | 3.75 micrograms/mL
CCOc1ccc2nc(-c3ccc(C)cc3)cn2n1 [Compound 2] | 0.875 micrograms/mL
COc1c(-c2ccccc2)nc2ccc(SC)nn12 [Compound 3] | 3 micrograms/mL
CSc1ccc2nc(-c3ccccc3)cn2n1 [Compound 4] | 2.75 micrograms/mL
c1ccc(Sc2ccc3nc(-c4ccccc4)cn3n2)cc1 [Compound 5] | 1.625 micrograms/mL
CSc1ccc2nc(-c3ccc4c(c3)OCO4)cn2n1 [Compound 6] | 3.25 micrograms/mL
CCCSc1ccc2nc(-c3ccc(C)cc3)cn2n1 [Compound 7] | 0.938 micrograms/mL
CCCSc1ccc2nc(-c3ccc4c(c3)OCO4)cn2n1 [Compound 8] | 0.813 micrograms/mL
COc1c(-c2ccc3cc(C)ccc3c2)nc2ccc(SC)nn12 [Compound 9] | >15.0 micrograms/mL
c1ccc(COc2ccc3nc(-c4ccccc4)cn3n2)cc1 [Compound 10] | 5.5 micrograms/mL
CCCOc1ccc2nc(-c3ccc(Cl)cc3)cn2n1 [Compound 11] | 3.75 micrograms/mL
CCSc1ccc2nc(-c3ccc(C)cc3)cn2n1 [Compound 12] | 1.25 micrograms/mL
CCCSc1ccc2nc(-c3cccc(OC)c3)cn2n1 [Compound 13] | 0.63 micrograms/mL
CCCSc1ccc2nc(-c3cc(OC)c(OC)c(OC)c3)cn2n1 [Compound 14] | >15.0 micrograms/mL
COc1cccc(-c2nc3ccc(SC)nn3c2OC)c1 [Compound 15] | 2.75 micrograms/mL
CCCOc1ccc2nc(-c3ccc4c(c3)OCO4)cn2n1 [Compound 16] | 0.23 micrograms/mL
COc1ccc(-c2nc3ccc(OCc4ccccc4)nn3c2OC)cc1 [Compound 17] | >15.0 micrograms/mL
COc1ccc(-c2cn3nc(OC)ccc3n2)cc1 [Compound 18] | 3 micrograms/mL
COc1cccc(Sc2ccc3nc(-c4ccc5c(c4)OCO5)cn3n2)c1 [Compound 19] | >15.0 micrograms/mL
CSCc1c(-c2ccc(Cl)cc2)nc2ccc(SC)nn12 [Compound 20] | >15.0 micrograms/mL

Compound | LD99
COc1c(-c2ccccc2)nc2ccc(Sc3ccccc3)nn12 [Compound 21] | >15.0 micrograms/mL
CCCSc1ccc2nc(-c3ccccc3)c(OC)n2n1 [Compound 22] | >15.0 micrograms/mL
COc1c(-c2ccccc2)nc2ccc(OCc3ccccc3)nn12 [Compound 23] | >15.0 micrograms/mL
CCSc1ccc2nc(-c3ccccc3)c(OC)n2n1 [Compound 24] | 7.5 micrograms/mL
COCCOc1ccc2nc(-c3ccc4c(c3)OCO4)cn2n1 [Compound 25] | 1.25 micrograms/mL
CCCOc1ccc2nc(-c3ccc(OC)c(OC)c3)cn2n1 [Compound 26] | 1.3 micrograms/mL
CCCOc1ccc2nc(-c3ccc(OCC)cc3)cn2n1 [Compound 27] | 0.1 micrograms/mL
CCCOc1ccc2nc(-c3cccc(OC)c3)cn2n1 [Compound 28] | 0.23 micrograms/mL
CCCSc1ccc2nc(-c3ccc(OC)c(OC)c3)cn2n1 [Compound 29] | 1.9 micrograms/mL
CCCSc1ccc2nc(-c3ccc(OCC)cc3)cn2n1 [Compound 30] | 0.38 micrograms/mL
CCOc1ccc(-c2cn3nc(OC4CCCC4)ccc3n2)cc1 [Compound 31] | 0.875 micrograms/mL
CCCOc1nn2cc(-c3ccc(OCC)cc3)nc2cc1C [Compound 32] | 0.188 micrograms/mL
CCCOc1ccc2nc(-c3ccc(Cl)s3)cn2n1 [Compound 34] | 0.188 micrograms/mL
CCOc1ccc(-c2cn3nc(-c4ccccc4)ccc3n2)cc1 [Compound 35] | 10 micrograms/mL
COc1ccc(-c2nc3ccc(-c4ccccc4)nn3c2C)cc1 [Compound 36] | 0.8123 micrograms/mL
CCCOc1ccc2nc(-c3ccc(OC)cc3)c(C)n2n1 [Compound 37] | 0.344 micrograms/mL
CCCOc1ccc2nc(-c3ccc(OC)c(Br)c3)c(C)n2n1 [Compound 38] | 3.75 micrograms/mL
CCOc1ccc(-c2nc3ccc(OCC4CC4)nn3c2Br)cc1 [Compound 39] | 2.75 micrograms/mL
CCCOc1ccc2nc(-c3ccc(OCC)cc3)c(Br)n2n1 [Compound 40] | 0.344 micrograms/mL
CCOc1ccc(-c2cn3nc(SCc4ccc(OC)cc4)ccc3n2)cc1 [Compound 41] | 11 micrograms/mL

Compound | LD99
CCOc1ccc(-c2cn3nc(SCc4ccc(Cl)cc4)ccc3n2)cc1 [Compound 42] | 3 micrograms/mL
Cc1c(-c2cccs2)nc2ccc(Br)nn12 [Compound 45] | 6 micrograms/mL
CCCCCCSc1ccc2nc(-c3cccs3)c(C)n2n1 [Compound 46] | 6.5 micrograms/mL
COc1ccc(CSc2ccc3nc(-c4cccs4)c(C)n3n2)cc1 [Compound 47] | 7.5 micrograms/mL
CCCSc1ccc2nc(-c3ccc(OCC)cc3)c(Cl)n2n1 [Compound 48] | 6 micrograms/mL
CCOc1ccc(-c2cn3nc(SCC(C)C)ccc3n2)cc1 [Compound 49] | 1.75 micrograms/mL
CCOc1ccc(-c2cn3nc(SC(C)C)ccc3n2)cc1 [Compound 50] | 0.875 micrograms/mL
CCOc1ccc(-c2cn3nc(OC(C)C)ccc3n2)cc1 [Compound 51] | 1.875 micrograms/mL
COc1ccc(-c2cn3nc(SC(C)C)ccc3n2)cc1 [Compound 52] | 0.938 micrograms/mL
CCCCOc1ccc2nc(-c3ccc(OCCC)cc3)cn2n1 [Compound 53] | 0.344 micrograms/mL
CCCOc1ccc2nc(-c3ccc(F)cc3F)cn2n1 [Compound 54] | 0.219 micrograms/mL
CCCOc1ccc2nc(-c3ccc(F)cc3)cn2n1 [Compound 55] | 0.813 micrograms/mL
CCc1ccc(-c2cn3nc(OCC4CC4)ccc3n2)cc1 [Compound 56] | 0.0781 micrograms/mL
COc1ccc(-c2cn3nc(SCC(C)C)ccc3n2)cc1OC [Compound 57] | 1.375 micrograms/mL
COc1ccc(-c2cn3nc(OC(C)C)ccc3n2)cc1OC [Compound 58] | 15 micrograms/mL
CCCCOc1ccc2nc(-c3ccc(OCCC)cc3)c(CN(C)C)n2n1 [Compound 59] | 14 micrograms/mL
CCOc1ccc(-c2cn3nc(OCC)ccc3n2)cc1 [Compound 60] | 0.172 micrograms/mL
CCCOc1ccc2nc(-c3ccc4c(c3)OCCO4)cn2n1 [Compound 61] | 0.813 micrograms/mL
CCCOc1nn2cc(-c3ccc(OCC)cc3)nc2c2ccccc12 [Compound 62] | 0.625 micrograms/mL

same assay, conditions: Table 2; concentration required to inhibit development in 99% of the nematode larvae; eggs on agar to L3 stage (6 days); two-fold dilutions, 0.024 to 50 μg/ml

Compound | LD99
COCCOc1ccc(-c2cn3nc(OCCOC)ccc3n2)cc1 [Compound 64] | 6 micrograms/mL
CCCOc1ccc2nc(-c3ccc(OCCOC)c(OC)c3)cn2n1 [Compound 66] | 0.81 micrograms/mL
COCCOc1ccc(-c2cn3nc(N4CCCCC4)ccc3n2)cc1 [Compound 67] | 1.5 micrograms/mL
CCCSc1ccc2nc(-c3ccc(OCCOC)c(OC)c3)cn2n1 [Compound 68] | 0.44 micrograms/mL
COCCOc1ccc(-c2cn3ncccc3n2)cc1 [Compound 69] | 15 micrograms/mL
COCCOc1ccc(-c2cn3nc(N4CCCC4)ccc3n2)cc1 [Compound 70] | 3.25 micrograms/mL
CCCNc1ccc2nc(-c3ccc(OCCOC)cc3)cn2n1 [Compound 71] | 0.688 micrograms/mL
COCCOc1ccc(-c2cn3nc(OC4CCCC4)ccc3n2)cc1 [Compound 73] | 1.875 micrograms/mL
OCCOc1ccc(-c2cn3nc(OC4CCCC4)ccc3n2)cc1 [Compound 74] | 7 micrograms/mL
CCCOc1ccc2nc(-c3ccc(OCCOC)cc3)c(Br)n2n1 [Compound 81] | 0.0137 micrograms/mL
CCCOc1ccc2nc(-c3ccc(OCCOC)c(Br)c3)c(C)n2n1 [Compound 83] | 0.375 micrograms/mL
CCCOc1ccc2nc(-c3ccc(OCCOC)cc3)c(C)n2n1 [Compound 84] | 0.109 micrograms/mL
COCCOc1ccc(-c2nc3ccc(-c4ccccc4)nn3c2C)cc1 [Compound 85] | 1.88 micrograms/mL
COCCOc1ccc(-c2nc3ccc(Cl)nn3c2C)cc1Br [Compound 86] | 3 micrograms/mL
COCCOc1ccc(-c2nc3ccc(Cl)nn3c2C)cc1 [Compound 87] | 0.156 micrograms/mL
CCCSc1ccc2nc(-c3ccc(OCCOC)c(OC)c3)c(Br)n2n1 [Compound 89] | 0.75 micrograms/mL
COCCOc1ccc(-c2cn3nc(Br)ccc3n2)cc1 [Compound 90] | 3 micrograms/mL
